From US9630977B2, “Cephalosporin derivatives and pharmaceutical compositions thereof” (Legochem Biosciences, Inc., priority 2011, dated 2017)
≈ marks a conversion by molar mass, not a printed value. Where two headings read alike, the source gives them in different places.

Key:
Test in all cases: In vitro antibacterial activity test (broth microdilution)
Assay type in all cases: cell-based
[1] = system: E. cloacae β19
Procedure: (§1) To evaluate antibacterial activity of each of the compounds of Examples 1 to 68, in vitro antibacterial activity test was performed.
(§2) The in vitro antibacterial activity was evaluated by measuring MIC90 (ug/mL) of each of the compounds of Examples 1 to 68, which is defined as the lowest concentration of an antibiotic that will inhibit the visible growth of 90% of microorganisms after incubation as compared with a control group to which the antibiotic is not treated. MIC90 values were measured by the broth microdilution method developed by the Clinical and Laboratory Standards Institute (CLSI) (see CLSI M7-A5, Methods for Dilution Antimicrobial Susceptibility Test for Bacteria that Grow Aerobically-Fifth Edition (2000): CLSI, Villanova, Pa.).
(§3) In vitro antibacterial activity was measured with respect to the following 19 clinical isolates: M. catarrhalis; P. aeruginosa (5 strains); K. pneumoniae (6 strains); A. baumannii (3 strains); E. coli (2 strains); A. calcoaceticus; and E. cloacae.
(§4) Test compounds each (the cephalosporin derivative compounds prepared in Examples 1 to 68) were dissolved in DMSO at the concentration of 10,240 ug/mL, were diluted by two fold with DMSO, and then were diluted by twenty fold with sterilized distilled water. The final concentration in the antibacterial activity test was in the range of […] to 128 ug/mL, and the final concentration of DMSO used as an adjuvant was 2.5% (V/V).

[2] = system: A. baumannii 46
Procedure: as §1, §2, §3, §4

[3] = system: K. pneumoniae β14
Procedure: as §1, §2, §3, §4

[4] = system: A. baumannii 52
Procedure: as §1, §2, §3, §4

[5] = system: A. baumannii 49
Procedure: as §1, §2, §3, §4

[6] = system: P. aeruginosa 40
Procedure: as §1, §2, §3, §4

[7] = system: P. aeruginosa 37
Procedure: as §1, §2, §3, §4

[8] = system: P. aeruginosa 6065Y
Procedure: as §1, §2, §3, §4

[9] = system: K. pneumoniae 2011E
Procedure: as §1, §2, §3, §4

[10] = system: A. calcoaceticus ATCC15473
Procedure: as §1, §2, §3, §4

[11] = system: E. coli AG100
Procedure: as §1, §2, §3, §4

[12] = system: E. coli β4
Procedure: as §1, §2, §3, §4

[13] = system: P. aeruginosa 1912E
Procedure: as §1, §2, §3, §4

[14] = system: P. aeruginosa 43; conditions: Pseudomonas aeruginosa
Procedure: as §1, §2, §3, §4

[15] = Enterobacter cloacae, read-out: MIC90
[16] = Acinetobacter baumannii, A. baumannii 46, read-out: MIC90
[17] = Klebsiella pneumoniae, read-out: MIC90
[18] = Acinetobacter baumannii, A. baumannii 52, read-out: MIC90
[19] = Acinetobacter baumannii, A. baumannii 49, read-out: MIC90
[20] = Pseudomonas aeruginosa, 40, P. aeruginosa 40, read-out: MIC90
[21] = Pseudomonas aeruginosa, 37, P. aeruginosa 37, read-out: MIC90
[22] = Pseudomonas aeruginosa, read-out: MIC90
[23] = Klebsiella pneumoniae, 2011E, K. pneumoniae 2011E, read-out: MIC90
[24] = Acinetobacter calcoaceticus, A. calcoaceticus ATCC15473, read-out: MIC90
[25] = Escherichia coli, AG100, E. coli AG100, read-out: MIC90
[26] = Escherichia coli, read-out: MIC90
[27] = Pseudomonas aeruginosa, 1912E, read-out: MIC90
[28] = Acinetobacter baumannii, 46, A. baumannii 46
[29] = Acinetobacter baumannii, 49, A. baumannii 49
[30] = Pseudomonas aeruginosa, 37, P. aeruginosa 37
[31] = Acinetobacter calcoaceticus, ATCC15473, A. calcoaceticus ATCC15473

MIC90 [1, 15] | MIC90 [2, 16] | MIC90 [3, 17] | MIC90 [4, 18] | MIC90 [5, 19] | MIC90 [6, 20] | MIC90 [7, 21] | MIC90 [8, 22] | MIC90 [9, 23] | MIC90 [10, 24] | MIC90 [11, 25] | MIC90 [12, 26] | MIC90 [13, 27] | Compound | further results
128 µg/mL (≈ 207 µM) | 8 µg/mL (≈ 12.9 µM) | 32 µg/mL (≈ 51.6 µM) | 128 µg/mL (≈ 207 µM) | 128 µg/mL (≈ 207 µM) | 4 µg/mL (≈ 6.46 µM) | 128 µg/mL (≈ 207 µM) | 16 µg/mL (≈ 25.8 µM) | 1 µg/mL (≈ 1.61 µM) | 1 µg/mL (≈ 1.61 µM) | 0.5 µg/mL (≈ 0.807 µM) | 8 µg/mL (≈ 12.9 µM) | 4 µg/mL (≈ 6.46 µM) | CC(=O)Nc1c[n+](CC2=C(C(=O)[O-])N3C(=O)[C@@H](NC(=O)/C(=N\OC(C)(C)C(=O)O)c4csc(N)n4)C3SC2)cnc1N (stereo partly shown) [Compound 68] | 
> 128 µg/mL | 128 µg/mL (≈ 193 µM) | 64 µg/mL (≈ 96.4 µM) | > 128 µg/mL | > 128 µg/mL | 64 µg/mL (≈ 96.4 µM) | > 128 µg/mL | 128 µg/mL (≈ 193 µM) | 4 µg/mL (≈ 6.03 µM) | 16 µg/mL (≈ 24.1 µM) | 8 µg/mL (≈ 12.1 µM) | 16 µg/mL (≈ 24.1 µM) | 32 µg/mL (≈ 48.2 µM) | CC(C)(O/N=C(\C(=O)N[C@@H]1C(=O)N2C(C(=O)[O-])=C(C[n+]3cnc(N)c(NCCCC(=O)O)c3)CSC12)c1csc(N)n1)C(=O)O (stereo partly shown) [Compound 38] | 

The remaining lines, values behind:

Compound | MIC90 [1, 15] | MIC90 [2, 16] | MIC90 [3, 17] | MIC90 [4, 18] | MIC90 [5, 19] | MIC90 [6, 20] | MIC90 [7, 21] | MIC90 [8, 22] | MIC90 [9, 23] | MIC90 [10, 24] | MIC90 [11, 25] | MIC90 [12, 26] | MIC90 [13, 27] | further results
CN(CCNc1c[n+](CC2=C(C(=O)[O-])N3C(=O)[C@@H](NC(=O)/C(=N\OC(C)(C)C(=O)O)c4csc(N)n4)C3SC2)cnc1N)Cc1ccc(O)c(O)c1 (stereo partly shown) [Compound 29] | 8 µg/mL (≈ 10.6 µM) | 8 µg/mL (≈ 10.6 µM) | 16 µg/mL (≈ 21.1 µM) | 32 µg/mL (≈ 42.3 µM) | 32 µg/mL (≈ 42.3 µM) | 4 µg/mL (≈ 5.29 µM) | 2 µg/mL (≈ 2.64 µM) | 8 µg/mL (≈ 10.6 µM) | 8 µg/mL (≈ 10.6 µM) | 4 µg/mL (≈ 5.29 µM) | 2 µg/mL (≈ 2.64 µM) | 2 µg/mL (≈ 2.64 µM) | 2 µg/mL (≈ 2.64 µM) | MIC90 ([14]; P. aeruginosa 43, read-out: MIC90): 4 µg/mL (≈ 5.29 µM)
CC(C)(O/N=C(\C(=O)N[C@@H]1C(=O)N2C(C(=O)[O-])=C(C[n+]3cnc(N)c(NCCNC(=N)N)c3)CSC12)c1csc(N)n1)C(=O)O (stereo partly shown) [Compound 40] |  |  |  |  |  |  |  |  |  |  |  |  |  | MIC90 ([1]; Enterobacter cloacae): 32 µg/mL (≈ 48.3 µM); MIC90 [2, 28]: 2 µg/mL (≈ 3.02 µM); MIC90 ([3]; Klebsiella pneumoniae): 8 µg/mL (≈ 12.1 µM); MIC90 ([4]; Acinetobacter baumannii, 52): 128 µg/mL (≈ 193 µM); MIC90 [5, 29]: 128 µg/mL (≈ 193 µM); MIC90 [14]; 43: 32 µg/mL (≈ 48.3 µM); MIC90 ([6]; Pseudomonas aeruginosa, 40): 8 µg/mL (≈ 12.1 µM); MIC90 [7, 30]: 8 µg/mL (≈ 12.1 µM); MIC90 ([8]; Pseudomonas aeruginosa, 6065Y): 16 µg/mL (≈ 24.1 µM); MIC90 ([9]; Klebsiella pneumoniae, 2011E): 16 µg/mL (≈ 24.1 µM); MIC90 [10, 31]: 0.25 µg/mL (≈ 0.377 µM); MIC90 ([11]; Escherichia coli, AG100): 4 µg/mL (≈ 6.04 µM); MIC90 ([12]; Escherichia coli): 8 µg/mL (≈ 12.1 µM); MIC90 ([13]; Pseudomonas aeruginosa, 1912E): 4 µg/mL (≈ 6.04 µM)
CC(C)(O/N=C(\C(=O)N[C@@H]1C(=O)N2C(C(=O)[O-])=C(C[n+]3cnc(N)c(NCCN)c3)CSC12)c1csc(N)n1)C(=O)O (stereo partly shown) [Compound 49] |  |  |  |  |  |  |  |  |  |  |  |  |  | MIC90 [1]: 32 µg/mL (≈ 51.6 µM); MIC90 ([2]; A. baumannii 46): 8 µg/mL (≈ 12.9 µM); MIC90 [3]: 32 µg/mL (≈ 51.6 µM); MIC90 ([4]; A. baumannii 52): 64 µg/mL (≈ 103 µM); MIC90 ([5]; A. baumannii 49): 64 µg/mL (≈ 103 µM); MIC90 [14]; 43: > 128 µg/mL; MIC90 ([6]; P. aeruginosa 40): 4 µg/mL (≈ 6.44 µM); MIC90 ([7]; P. aeruginosa 37): 8 µg/mL (≈ 12.9 µM); MIC90 [8]: 16 µg/mL (≈ 25.8 µM); MIC90 ([9]; K. pneumoniae 2011E): 8 µg/mL (≈ 12.9 µM); MIC90 ([10]; A. calcoaceticus ATCC15473): 2 µg/mL (≈ 3.22 µM); MIC90 ([11]; E. coli AG100): 4 µg/mL (≈ 6.44 µM); MIC90 [12]: 8 µg/mL (≈ 12.9 µM); MIC90 [13]: 2 µg/mL (≈ 3.22 µM)
CC(C)(O/N=C(\C(=O)N[C@@H]1C(=O)N2C(C(=O)[O-])=C(C[n+]3cnc(N)c(N)c3)CSC12)c1csc(N)n1)C(=O)O (stereo partly shown) [Compound 36] | > 128 µg/mL | 64 µg/mL (≈ 111 µM) | 16 µg/mL (≈ 27.7 µM) | > 128 µg/mL | > 128 µg/mL | 16 µg/mL (≈ 27.7 µM) | > 128 µg/mL | 64 µg/mL (≈ 111 µM) | 0.5 µg/mL (≈ 0.866 µM) | 2 µg/mL (≈ 3.46 µM) | 0.5 µg/mL (≈ 0.866 µM) | 16 µg/mL (≈ 27.7 µM) | 8 µg/mL (≈ 13.9 µM) | 
CC(C)(O/N=C(\C(=O)N[C@@H]1C(=O)N2C(C(=O)[O-])=C(C[n+]3cnc(N)c(NC(=O)CCN)c3)CSC12)c1csc(N)n1)C(=O)O (stereo partly shown) [Compound 48] |  |  |  |  |  |  |  |  |  |  |  |  |  | MIC90 ([1]; Enterobacter cloacae): 128 µg/mL (≈ 197 µM); MIC90 [2, 28]: 8 µg/mL (≈ 12.3 µM); MIC90 ([3]; Klebsiella pneumoniae): 16 µg/mL (≈ 24.7 µM); MIC90 ([4]; Acinetobacter baumannii, 52): 128 µg/mL (≈ 197 µM); MIC90 [5, 29]: 128 µg/mL (≈ 197 µM); MIC90 ([6]; Pseudomonas aeruginosa, 40): 8 µg/mL (≈ 12.3 µM); MIC90 [7, 30]: 64 µg/mL (≈ 98.7 µM); MIC90 ([8]; Pseudomonas aeruginosa, 6065Y): 16 µg/mL (≈ 24.7 µM); MIC90 ([9]; Klebsiella pneumoniae, 2011E): 4 µg/mL (≈ 6.17 µM); MIC90 [10, 31]: 0.5 µg/mL (≈ 0.771 µM); MIC90 ([11]; Escherichia coli, AG100): 2 µg/mL (≈ 3.08 µM); MIC90 ([12]; Escherichia coli): 2 µg/mL (≈ 3.08 µM); MIC90 ([13]; Pseudomonas aeruginosa, 1912E): 8 µg/mL (≈ 12.3 µM)
